The text below walks through data of patent US20230173087A1, “ANTIBODY DRUG CONJUGATES WITH CLEAVABLE LINKERS” (Heidelberg Pharma Research GmbH, priority 2019, published 2023).

Test [1] deals with SKBR-3 (breast cancer) cells. Kind of test: Cytotoxicity, chemiluminescent BrdU-ELISA incorporation assay on SKBR-3 cells. Type of test: cell-based. The conditions noted are these: as antibody conjugate. A general note: In an ELISA, binding on a coated surface is turned into a signal by an enzyme label.
Description: Cytotoxic activity of Trastuzumab (Anti-Her2neu-specific antibody)-amatoxin conjugates was evaluated in vitro on HER2-positive tumor cell lines SKBR-3 (breast cancer), NCI-N87 (gastric cancer), and JIMT-1 (breast cancer) using a chemiluminescent BrdU-ELISA incorporation assay (Roche).
For test [2], the target named is RNA polymerase II (Homo sapiens, UniProt P24928+P30876). The conditions noted are these: read-out: KD of complex between amanitin and RNA polymerase II; cited from earlier work.

With `CC[C@H](C)[C@@H]1NC(=O)CNC(=O)C2Cc3c([nH]c4cc(O)ccc34)[S@+]([O-])CC(NC(=O)CNC1=O)C(=O)NC(CC(N)=O)C(=O)N1CC(O)CC1C(=O)N[C@@H]([C@@H](C)[C@@H]1COC(c3ccc(NC(=O)[C@H](C)NC(=O)C(NC(=O)CCN4C(=O)C=CC4=O)C(C)C)cc3)O1)C(=O)N2` (stereo partly drawn) [HDP 30.2684, α-Amanitin-(BMP-Val-Ala-4-amino-benzylidenacetal)], the “effectiveness in vitro compared to HDP 30.1699” value in test [1] was “as effective as HDP 30.1699”.
As to amanitin, the Kd – broadly, the concentration at which binding is half-saturated – in test [2] is 3 nM.
